The results in this text go back to patent US11352400B2, “PI3K gamma inhibitor peptide for treatment of respiratory system diseases” (Kither Biotech S.r.I., priority 2014, dated 2022).

One assay relates to wild-type CFTR. Kind of assay: Chloride currents in Ussing chamber, NuLi-1 cells. Format: cell-based, human. The note with it: peptide 10-30 μM, P1 30 μM. On the procedure: Human airway epithelial cell lines expressing a wild-type CFTR (NuLi-1) or with the ΔF508 mutation (CuFi-1) were purchased from ATCC (NuLi-1 product code: ATCC® CRL-4011™; CuFi-1 product code: ATCC® CRL-4013™). Cells were cultured in Dulbecco's Modified Eagle Medium (DMEM, Gibco, Carlsbad, Calif.) supplemented with 10% fetal bovine serum (FBS), 30 μg/mL of penicillin, 100 μg/mL of streptomycin and 300 μg/mL hygromycin B (Gibco, Carlsbad, Calif.).
To measure chloride currents in normal and ΔF508 primary human bronchial epithelial cells, cells were cultured on 1.12 cm^2 Snapwell inserts. Filters were mounted in Ussing chambers, and a chloride gradient was applied by incubating the cells in a basolateral high-chloride buffer containing (in mmol/L): 140 NaCl, 5 KCl, 0.36 K2HPO4, 0.44 KH2PO4, 1.3 CaCl2, 0.5 MgCl2, 4.2 NaHCO3, 10 HEPES, and 10 glucose, at pH 7.4 and an apical low-chloride buffer containing (in mmol/L): 133.3 Na-gluconate, 5 K-gluconate, 2.5 NaCl, 0.36 K2HPO4, 0.44 KH2PO4, 5.7 CaCl2, 0.5 MgCl2, 4.2 NaHCO3, 10 HEPES, and 10 mannitol, at pH 7.4. Buffers were aerated with a mixture of 95% O2 and 5% CO2 and the temperature was maintained at 37° C. during the experiment. […] After a stabilization period of 30 minutes, drugs were added at specific times, while the current was continuously recorded.

Assay [1] concerns cAMP levels in the airways. In words: cAMP extraction and quantification in trachea and lungs of treated mice. The note with it: intra-tracheal, 1.5 μg/mouse, 30 minutes; vs PBS or P1 control peptide. The assay is classed as in vivo, BALB/C mice. On the procedure: Lungs and trachea were explanted from animals following euthanasia, pulverized in liquid nitrogen and used for cold extraction of cAMP with 6% trichloroacetic acid. Samples were sonicated for 10 seconds and centrifuged at 13000 rpm at 4° C. for 15 minutes. Supernatants were washed four times with five volumes of diethyl ether saturated with water and lyophilized. cAMP content was detected with an Amersham cAMP BioTrak Enzymeimmunoassay System (GE Healthcare Life Sciences, Pittsburgh, USA, product code: RPN225), according to the manufacturer's protocol.
Wild-type BALB/C mice were injected by the intra-tracheal route with 1.5 μg of the Trojan peptide derived from PI3Kγ conjugated to fluorescein or vehicle, in a final volume of 70 μL of PBS. After 30 minutes, animals were anesthetized, the trachea and lungs were insufflated with PBS, extracted and frozen in OCT. Cryosections of 10 microns were obtained with a Leica CM1850 cryostat (Leica Microsystems GmbH, Wetzlar, Germany) and fluorescence was acquired with a Zeiss Observer-Z1, equipped with an Apotome module (Carl Zeiss, Oberkochen, Germany).

The test system of assay [2] is airway hyperreactivity induced by the muscarinic agonist methacholine in healthy mice. In words: Airway hyperreactivity to methacholine in healthy mice. As to conditions: peptide 1.5 μg or equimolar P1, increasing doses of methacholine. Format: in vivo, BALB/C mice.
Assay [3] concerns Cav1.2 subunit (Ser-1928) of the L-type calcium channel (LTCC). In words: Western blot of cAMP-dependent phosphorylation of Cav1.2 in hBSMCs. Format: cell-based, human. The note with it: 50 μM, 30 minutes, vs vehicle or P1. On the procedure:
(§1) For protein extraction from murine tracheal smooth muscle cells (mTSMCs) and human bronchial smooth muscle cells (hBSMCs), cells were treated with the indicated drugs/peptides and immediately lysed in cold lysis buffer containing 120 mmol/L NaCl, 50 mmol/L Tris-HCl (pH 8.0), complete protease inhibitors (Roche Applied Science, Indianapolis, Ind.) and phosphatase inhibitors (50 mmol/L sodium fluoride, 1 mmol/L sodium orthovanadate and 10 mmol/L sodium pyrophosphate). After 30 min of incubation on ice, lysates were centrifuged at 13000 rpm for 10 min at 4° C. and used for either Western blotting or subjected to immunoprecipitation and measurements of phosphodiesterase activity.
In general terms: In western blotting, separated proteins are transferred to a membrane and probed.

The subject of the next assay is PDE4D. In words: Phosphodiesterase activity in anti-PDE4D immunoprecipitates from treated tracheal smooth muscle cells. Format: cell-based, mouse. As to conditions: tracheal smooth muscle cells of wild-type mice (PI3Kγ+/+); 50 μM, 30 minutes. As to the method: as §1, with “activity. […]” for “activity.”
Phosphodiesterase activity in immunoprecipitates was measured according to the two-step method of Thompson and Appleman, as previously described (2), with minor modifications. […] The amount of radiolabeled adenosine in the supernatant was quantified by scintillation counting (Ultima Gold liquid scintillation from Perkin Elmer, Waltham, Mass.).
Murine tracheal smooth muscle cells were cultured from explants of trachea using previously described methods with modifications. […] More than 90% of these cells were smooth muscle cells, as determined by immunofluorescence performed with an antibody specific for smooth muscle actin. […]

“RQIKIWFQNRRMKWKKGKATHRSPGQIHLVQRHPPSEESQAF (fusion peptide comprising SEQ ID No.1 and SEQ ID No.3) [Trojan peptide derived from PI3Kγ]”: in the assay with wild-type CFTR, the “CFTR-dependent Cl− currents” value was “increased significantly”. In assay [1], the “cAMP levels in the trachea and in the lungs, higher than controls” value is given as 30%. In assay [2], the “airway hyperreactivity induced by methacholine (average lung resistance)” value was “significantly attenuated”. Also, in assay [3], the “cAMP-mediated phosphorylation of Cav1.2” value was “significantly higher”. Moreover, in the assay with PDE4D, the “catalytic activity of PDE4D” value is recorded as “significantly reduced”.
